Source: patent US10538554B2, “Peptides and uses therefor as antiviral agents” (priority 2015, dated 2020)
Read-outs that look alike come from different tables or passages of the source. Bridge positions count the residues as written; N and C are the ends. Square brackets hold non-standard residues; d marks the D form. Peptide text beside a SMILES is read from it.

How the values were obtained:
H9N2 A/Iran/16/2000 = settings: 48 h
[1] = tested on: H1N1 A1/Malaysia/302/1954; settings: A1/Malaysia/302/1954, 48 h
H3N8 A/Miami/2/63 = settings: A/Miami/2/63, 48 h
H3N2 A/HK/8/1968 = settings: A/HK/8/1968, 48 h

SMILES | % inhibition H9N2 (H9N2 A/Iran/16/2000; 50 μM) [%] | % inhibition H1N1 ([1]; 50 μM) [%] | % inhibition H3N8 (H3N8 A/Miami/2/63; 50 μM) [%] | % inhibition H3N2 (H3N2 A/HK/8/1968; 50 μM) [%] | % inhibition H9N2 (H9N2 A/Iran/16/2000; 500 μM) [%] | % inhibition H1N1 ([1]; 500 μM) [%] | % inhibition H3N8 (H3N8 A/Miami/2/63; 500 μM) [%] | % inhibition H3N2 (H3N2 A/HK/8/1968; 500 μM) [%]
CC[C@@H](C)[C@H]1NC(=O)[C@@H](Cc2ccccc2)NC(=O)[C@@H](CCCNC(=N)N)NC(=O)[C@@H](Cc2c[nH]c3ccccc23)NC(=O)[C@@H](Cc2c[nH]c3ccccc23)NC(=O)[C@@H]([C@H](C)O)NC(=O)[C@H](NC(=O)[C@H](CCCCN)NC(=O)[C@H](CCCCN)NC(=O)[C@H](CCCNC(=N)N)NC(=O)[C@@H](N)CCCNC(=N)N)CSSC[C@H](C(=O)O)NC(=O)[C@@H](CC(N)=O)NC1=O [PSP III B19, H-RRKKctwwrfinc-OH] (H-RRKK[dC][dT][dW][dW][dR][dF][dI][dN][dC]-OH; disulfide 5-13) | 97 | 94 | 100 | 100 |  |  |  | 
C[C@H](O)[C@H]1NC(=O)[C@H](N)CSSC[C@H](C(=O)O)NC(=O)[C@@H](CC(N)=O)NC(=O)[C@@H](CC(=O)O)NC(=O)[C@@H](Cc2ccccc2)NC(=O)[C@@H](CCCNC(=N)N)NC(=O)[C@@H](CO)NC(=O)[C@@H](CCCCN)NC1=O [PSP 3, H-ctksrfdnc-OH] (H-[dC][dT][dK][dS][dR][dF][dD][dN][dC]-OH; disulfide 1-9) |  |  |  |  | >50 | 29.4 | 67 | 74.1
CC[C@@H](C)[C@H]1NC(=O)[C@@H](Cc2ccccc2)NC(=O)[C@@H](CCCNC(=N)N)NC(=O)[C@@H](CC(C)C)NC(=O)[C@@H](Cc2c[nH]c3ccccc23)NC(=O)[C@@H]([C@H](C)O)NC(=O)[C@H](NC(=O)[C@H](CCCCN)NC(=O)[C@H](CCCCN)NC(=O)[C@H](CCCNC(=N)N)NC(=O)[C@@H](N)CCCNC(=N)N)CSSC[C@H](C(=O)O)NC(=O)[C@@H](CC(N)=O)NC1=O [PSP III B10, H-RRKKctwlrfinc-OH] (H-RRKK[dC][dT][dW][dL][dR][dF][dI][dN][dC]-OH; disulfide 5-13) | 90 | 92 | 96 | 100 |  |  |  | 
CC[C@@H](C)[C@H]1NC(=O)[C@@H](Cc2ccccc2)NC(=O)[C@@H](CCCNC(=N)N)NC(=O)[C@@H](CCCCN)NC(=O)[C@@H](Cc2c[nH]c3ccccc23)NC(=O)[C@@H]([C@H](C)O)NC(=O)[C@H](NC(=O)[C@H](CCCCN)NC(=O)[C@H](CCCCN)NC(=O)[C@H](CCCNC(=N)N)NC(=O)[C@@H](N)CCCNC(=N)N)CSSC[C@H](C(=O)O)NC(=O)[C@@H](CC(N)=O)NC1=O [PSP III B9, H-RRKKctwkrfinc-OH] (H-RRKK[dC][dT][dW][dK][dR][dF][dI][dN][dC]-OH; disulfide 5-13) | 90 | 90 | 96 | 96 |  |  |  | 
CC[C@@H](C)[C@H]1NC(=O)[C@@H](Cc2ccccc2)NC(=O)[C@@H](CCCNC(=N)N)NC(=O)[C@@H]([C@H](C)CC)NC(=O)[C@@H](Cc2c[nH]c3ccccc23)NC(=O)[C@@H]([C@H](C)O)NC(=O)[C@H](NC(=O)[C@H](CCCCN)NC(=O)[C@H](CCCCN)NC(=O)[C@H](CCCNC(=N)N)NC(=O)[C@@H](N)CCCNC(=N)N)CSSC[C@H](C(=O)O)NC(=O)[C@@H](CC(N)=O)NC1=O [PSP III B8, H-RRKKctwirfinc-OH] (H-RRKK[dC][dT][dW][dI][dR][dF][dI][dN][dC]-OH; disulfide 5-13) | 81 | 88 | 91 | 100 |  |  |  | 
CC[C@@H](C)[C@H]1NC(=O)[C@@H](Cc2ccccc2)NC(=O)[C@@H](CCCNC(=N)N)NC(=O)[C@@H](CCCNC(=N)N)NC(=O)[C@@H](Cc2c[nH]c3ccccc23)NC(=O)[C@@H]([C@H](C)O)NC(=O)[C@H](NC(=O)[C@H](CCCCN)NC(=O)[C@H](CCCCN)NC(=O)[C@H](CCCNC(=N)N)NC(=O)[C@@H](N)CCCNC(=N)N)CSSC[C@H](C(=O)O)NC(=O)[C@@H](CC(N)=O)NC1=O [PSP III B15, H-RRKKctwrrfinc-OH] (H-RRKK[dC][dT][dW][dR][dR][dF][dI][dN][dC]-OH; disulfide 5-13) | 84 | 83 | 91 | 100 |  |  |  | 
C[C@H](O)[C@H]1NC(=O)[C@H](N)CSSC[C@H](C(=O)O)NC(=O)[C@@H](CC(N)=O)NC(=O)[C@@H](Cc2ccc(O)cc2)NC(=O)[C@@H](Cc2ccccc2)NC(=O)[C@@H](CCCNC(=N)N)NC(=O)[C@@H](CO)NC(=O)[C@@H](CCCCN)NC1=O [PSP 20, H-ctksrfync-OH] (H-[dC][dT][dK][dS][dR][dF][dY][dN][dC]-OH; disulfide 1-9) |  |  |  |  | 63.6 | 73.5 | 81.4 | 95.5
CC[C@@H](C)[C@H]1NC(=O)[C@@H](Cc2ccccc2)NC(=O)[C@@H](CCCNC(=N)N)NC(=O)[C@@H](C(C)C)NC(=O)[C@@H](Cc2c[nH]c3ccccc23)NC(=O)[C@@H]([C@H](C)O)NC(=O)[C@H](NC(=O)[C@H](CCCCN)NC(=O)[C@H](CCCCN)NC(=O)[C@H](CCCNC(=N)N)NC(=O)[C@@H](N)CCCNC(=N)N)CSSC[C@H](C(=O)O)NC(=O)[C@@H](CC(N)=O)NC1=O [PSP III B18, H-RRKKctwvrfinc-OH] (H-RRKK[dC][dT][dW][dV][dR][dF][dI][dN][dC]-OH; disulfide 5-13) | 88 | 90 | 100 | 100 |  |  |  | 
CC[C@@H](C)[C@H]1NC(=O)[C@@H](Cc2ccccc2)NC(=O)[C@@H](CCCNC(=N)N)NC(=O)[C@@H](CCSC)NC(=O)[C@@H](Cc2c[nH]c3ccccc23)NC(=O)[C@@H]([C@H](C)O)NC(=O)[C@H](NC(=O)[C@H](CCCCN)NC(=O)[C@H](CCCCN)NC(=O)[C@H](CCCNC(=N)N)NC(=O)[C@@H](N)CCCNC(=N)N)CSSC[C@H](C(=O)O)NC(=O)[C@@H](CC(N)=O)NC1=O [PSP III B11, H-RRKKctwmrfinc-OH] (H-RRKK[dC][dT][dW][dM][dR][dF][dI][dN][dC]-OH; disulfide 5-13) | 93 | 94 | 96 | 100 |  |  |  | 
CC[C@@H](C)[C@H]1NC(=O)[C@@H](Cc2ccccc2)NC(=O)[C@@H](CCCNC(=N)N)NC(=O)[C@@H](CCC(N)=O)NC(=O)[C@@H](Cc2c[nH]c3ccccc23)NC(=O)[C@@H]([C@H](C)O)NC(=O)[C@H](NC(=O)[C@H](CCCCN)NC(=O)[C@H](CCCCN)NC(=O)[C@H](CCCNC(=N)N)NC(=O)[C@@H](N)CCCNC(=N)N)CSSC[C@H](C(=O)O)NC(=O)[C@@H](CC(N)=O)NC1=O [PSP III B14, H-RRKKctwqrfinc-OH] (H-RRKK[dC][dT][dW][dQ][dR][dF][dI][dN][dC]-OH; disulfide 5-13) | 86 | 83 | 87 | 96 |  |  |  | 
CC[C@@H](C)[C@H]1NC(=O)[C@@H](Cc2ccccc2)NC(=O)[C@@H](CCCNC(=N)N)NC(=O)[C@@H](CC(=O)O)NC(=O)[C@@H](Cc2c[nH]c3ccccc23)NC(=O)[C@@H]([C@H](C)O)NC(=O)[C@H](NC(=O)[C@H](CCCCN)NC(=O)[C@H](CCCCN)NC(=O)[C@H](CCCNC(=N)N)NC(=O)[C@@H](N)CCCNC(=N)N)CSSC[C@H](C(=O)O)NC(=O)[C@@H](CC(N)=O)NC1=O [PSP III B3, H-RRKKctwdrfinc-OH] (H-RRKK[dC][dT][dW][dD][dR][dF][dI][dN][dC]-OH; disulfide 5-13) | 20 | 12 | 43 | 83 |  |  |  | 
CC[C@@H](C)[C@H]1NC(=O)[C@@H](Cc2ccccc2)NC(=O)[C@@H](CCCNC(=N)N)NC(=O)[C@@H](Cc2ccc(O)cc2)NC(=O)[C@@H](Cc2c[nH]c3ccccc23)NC(=O)[C@@H]([C@H](C)O)NC(=O)[C@H](NC(=O)[C@H](CCCCN)NC(=O)[C@H](CCCCN)NC(=O)[C@H](CCCNC(=N)N)NC(=O)[C@@H](N)CCCNC(=N)N)CSSC[C@H](C(=O)O)NC(=O)[C@@H](CC(N)=O)NC1=O [PSP III B20, H-RRKKctwyrfinc-OH] (H-RRKK[dC][dT][dW][dY][dR][dF][dI][dN][dC]-OH; disulfide 5-13) | 86 | 83 | 96 | 100 |  |  |  | 
CC[C@@H](C)[C@H]1NC(=O)[C@@H](Cc2ccccc2)NC(=O)[C@@H](CCCNC(=N)N)NC(=O)CNC(=O)[C@@H](Cc2c[nH]c3ccccc23)NC(=O)[C@@H]([C@H](C)O)NC(=O)[C@H](NC(=O)[C@H](CCCCN)NC(=O)[C@H](CCCCN)NC(=O)[C@H](CCCNC(=N)N)NC(=O)[C@@H](N)CCCNC(=N)N)CSSC[C@H](C(=O)O)NC(=O)[C@@H](CC(N)=O)NC1=O [PSP III B6, H-RRKKctwGrfinc-OH] (H-RRKK[dC][dT][dW]G[dR][dF][dI][dN][dC]-OH; disulfide 5-13) | 93 | 85 | 96 | 100 |  |  |  | 
CC[C@@H](C)[C@H]1NC(=O)[C@@H](Cc2ccccc2)NC(=O)[C@@H](CCCNC(=N)N)NC(=O)[C@@H](CO)NC(=O)[C@@H](CCCCN)NC(=O)[C@@H]([C@H](C)O)NC(=O)[C@H](N)CSSC[C@H](C(=O)O)NC(=O)[C@@H](CC(N)=O)NC1=O [PSP 8, H-ctksrfinc-OH] (H-[dC][dT][dK][dS][dR][dF][dI][dN][dC]-OH; disulfide 1-9) |  |  |  |  | 90.9 | 79.4 | 83.5 | 90.9
